Data: PMC6220849, “Mechanistic and structural studies of KDM‐catalysed demethylation of histone 1 isotype 4 at lysine 26” (Febs Letters, 2018)
Square brackets hold non-standard residues; d marks the D form. Ends that are not written are not given here. Lys(Me2) = CN(C)CCCC[C@H](N)C(=O)O

Tests used:
recombinant human KDM4A = molecular target: T1, recombinant human KDM4A (Homo sapiens, UniProt O75164); experiment: Formaldehyde dehydrogenase (FDH)-coupled demethylation assay, Michaelis–Menten kinetics; type: biochemical; conditions: peptide as substrate
T1 construct: recombinantly expressed as reported either in Escherichia coli (KDM2A1–557 25, KDM4A1–359 26); His6 (N); made in house; host or cells: Escherichia coli
T1 sequence (O75164 1-359): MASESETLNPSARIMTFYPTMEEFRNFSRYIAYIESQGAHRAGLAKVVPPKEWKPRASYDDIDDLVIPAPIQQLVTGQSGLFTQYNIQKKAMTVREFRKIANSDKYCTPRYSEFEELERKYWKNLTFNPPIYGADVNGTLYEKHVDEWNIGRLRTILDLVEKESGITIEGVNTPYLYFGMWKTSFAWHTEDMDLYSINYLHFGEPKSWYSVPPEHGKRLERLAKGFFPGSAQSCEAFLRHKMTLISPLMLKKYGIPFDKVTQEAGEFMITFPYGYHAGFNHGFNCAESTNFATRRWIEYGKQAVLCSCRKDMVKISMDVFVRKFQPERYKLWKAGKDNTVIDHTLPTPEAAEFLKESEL
Description: Kinetic parameters for KDM4 enzymes were determined by use of an FDH (formaldehyde dehydrogenase)/NAD^+‐coupled) assay for quantification of the formaldehyde reaction byproduct, as previously described 27. […] Specific activities were measured using a 100‐μM peptide. For Michaelis–Menten experiments, peptide concentrations were varied. Reactions were monitored using a PHERAstar FS plate reader (BMG Labtech, Ortenberg, Germany) with 355 nm excitation and 460 nm emission. Kinetic parameters were calculated from the reaction rate during the initial linear phase of formaldehyde production, which were used to calculate specific activities or fitted to Michaelis–Menten equations using […] PRISM (GraphPad Software, La Jolla, CA, USA).
Michaelis–Menten kinetics were then conducted with KDM4A. Samples containing KDM4A, 2OG, ascorbate, H1.4K26me3 peptide, NAD^+ and FDH were analysed over time and kinetic parameters were determined by recording the initial reaction rates of NADH production (corresponding to enzymatic production of formaldehyde) at varying peptide concentration.

KDM3A (KDM3A515–1317) = experiment: MALDI-TOF MS demethylation activity assay, KDM3A; type: biochemical, human; design: key: 🟢: Indicates that clear demethylation activity was observed; 🟡: Indicates that low level demethylation activity was observed (<10% conversion after 1 h); 🔴: Indicates no activity under the stated conditions (1 μM KDM, 10 μM peptide); 🟡*: *Indicates demethylation activity was only observed with 5 μM KDM; conditions: peptide as substrate, 1 μM KDM, 10 μM peptide, 50 mM HEPES pH 7.5, Fe(II) 10 μM, ascorbate 100 μM, 2OG 200 μM, 1 mM TCEP, 1 h at 37 °C
Description: (§1) Recombinant proteins (1 μM) were incubated with peptides (10 μM, sequences are given in Table S1) in 50 mM HEPES, pH 7.5 with addition of Fe(II) ammonium sulfate (10 μM), sodium ascorbate (100 μM) and 2‐oxoglutaric acid (200 μM). Reactions with KDM3A and KDM7A also contained 1 mM tris(2‐carboxyethyl)phosphine hydrochloride. No enzyme reactions were included as negative controls. Reactions were incubated for 1 h at 37 °C before being quenched with 1 : 1 (v/v) methanol. Analysis was carried out by MALDI‐TOF MS (Bruker, Billerica, MA, USA), with demethylation observed as mass shifts of 14 Da.
(§2) The propensity of human JmjC KDMs to catalyse demethylation at H1.4K26 was investigated using recombinant forms of the catalytic domains of representatives of each human JmjC KDM subfamily (KDM2‐7) and fragment peptides (Table S1) 37. Three peptides with identical sequences, corresponding to residues 18–32 of histone H1.4 (H2N‐[…]‐CONH2), but containing either a N ^ε‐tri‐, di‐ or monomethyllysine at K26 were synthesised (Fig. 1B and Table S1). Activity assays monitoring JmjC KDM‐catalysed demethylation of the peptides were then carried out; samples were prepared containing each peptide, 2‐oxoglutarate (2OG), ferrous iron, ascorbate and individual representatives from each JmjC KDM subfamily (KDM2A 38, KDM3A 21, KDM4E 22, KDM5C 39, 40, KDM6B 41, KDM7A 42).

KDM7A (KDM7A38–480) = experiment: MALDI-TOF MS demethylation activity assay, KDM7A; type: biochemical, human
Description: as §1, §2
(§3) N ^ε‐Trimethylated H3K4 binds to the plant homeobox domain of KDM7B, targeting the N ^ε‐dimethyllysine at H3K9 to the catalytic domain, and thus promoting demethylation 29, 44. To test whether similar targeting may occur with H1.4, promoting activity at H1.4K26, an H1.4 peptide was synthesised containing di‐N ^ε‐methyllysine at K26 and tri‐N ^ε‐methyllysine at K21 (i.e. at the equivalent position in the sequence to K4 in the H3 peptide, Fig. 1B, Table S1). Monomethylation at H1.4K21 has previously been observed by proteomic mass spectrometry 45. With the aim of enhancing activity, the enzyme concentration was increased from 1 μM to 5 μM, and time course analyses were conducted with both KDM7A and KDM7B, both with the new peptide (H1.4(18–32)K21me3K26me2) and the H1.4 peptides methylated only at K26 (Fig. 2B). […] Thus, it appears unlikely that N ^ε‐trimethylation at H1.4K21 promotes demethylation at H1.4K26 by KDM7B.

KDM6B (KDM6B1141–1590) = experiment: MALDI-TOF MS demethylation activity assay, KDM6B; type: biochemical, human; design: key: 🟢: Indicates that clear demethylation activity was observed; 🟡: Indicates that low level demethylation activity was observed (<10% conversion after 1 h); 🔴: Indicates no activity under the stated conditions (1 μM KDM, 10 μM peptide); 🟡*: *Indicates demethylation activity was only observed with 5 μM KDM; conditions: peptide as substrate, 1 μM KDM, 10 μM peptide, 50 mM HEPES pH 7.5, Fe(II) 10 μM, ascorbate 100 μM, 2OG 200 μM, 1 h at 37 °C
Description: as §1, §2

KDM2A (KDM2A1–557) = experiment: MALDI-TOF MS demethylation activity assay, KDM2A; type: biochemical, human; design: key: 🟢: Indicates that clear demethylation activity was observed; 🟡: Indicates that low level demethylation activity was observed (<10% conversion after 1 h); 🔴: Indicates no activity under the stated conditions (1 μM KDM, 10 μM peptide); 🟡*: *Indicates demethylation activity was only observed with 5 μM KDM; conditions: peptide as substrate, 1 μM KDM, 10 μM peptide, 50 mM HEPES pH 7.5, Fe(II) 10 μM, ascorbate 100 μM, 2OG 200 μM, 1 h at 37 °C
Description: as §1, §2

KDM4D (KDM4D1–359) = experiment: MALDI-TOF MS demethylation activity assay, KDM4D; type: biochemical, human; design: key: 🟢: Indicates that clear demethylation activity was observed; 🟡: Indicates that low level demethylation activity was observed (<10% conversion after 1 h); 🔴: Indicates no activity under the stated conditions (1 μM KDM, 10 μM peptide); 🟡*: *Indicates demethylation activity was only observed with 5 μM KDM; conditions: peptide as substrate, 1 μM KDM, 10 μM peptide, 50 mM HEPES pH 7.5, Fe(II) 10 μM, ascorbate 100 μM, 2OG 200 μM, 1 h at 37 °C
Description: as §1
(§4) Given the activity observed with KDM4E and KDM7A, we decided to investigate the intra‐subfamily conservation of this demethylation activity. The demethylation activity of the other subfamily members (KDM4A‐D and KDM7B) was therefore screened. […] Note that as with H3K9, demethylation of the monomethylated H1.4K26 peptide was only observed with KDM4E, under the stated conditions 24.

KDM4E (KDM4E1–337) = experiment: MALDI-TOF MS demethylation activity assay, KDM4E; type: biochemical, human; design: key: 🟢: Indicates that clear demethylation activity was observed; 🟡: Indicates that low level demethylation activity was observed (<10% conversion after 1 h); 🔴: Indicates no activity under the stated conditions (1 μM KDM, 10 μM peptide); 🟡*: *Indicates demethylation activity was only observed with 5 μM KDM; conditions: peptide as substrate, 1 μM KDM, 10 μM peptide, 50 mM HEPES pH 7.5, Fe(II) 10 μM, ascorbate 100 μM, 2OG 200 μM, 1 h at 37 °C
Description: as §1, §2

KDM4B (KDM4B1–359) = experiment: MALDI-TOF MS demethylation activity assay, KDM4B; type: biochemical, human; design: key: 🟢: Indicates that clear demethylation activity was observed; 🟡: Indicates that low level demethylation activity was observed (<10% conversion after 1 h); 🔴: Indicates no activity under the stated conditions (1 μM KDM, 10 μM peptide); 🟡*: *Indicates demethylation activity was only observed with 5 μM KDM; conditions: peptide as substrate, 1 μM KDM, 10 μM peptide, 50 mM HEPES pH 7.5, Fe(II) 10 μM, ascorbate 100 μM, 2OG 200 μM, 1 h at 37 °C
Description: as §1, §4

KDM7B (PHF8; KDM7B1–447) = experiment: MALDI-TOF MS demethylation activity assay, KDM7B (PHF8); type: biochemical, human; design: key to demethylation activity on methylated H1.4 peptide: 🟢: Indicates that clear demethylation activity was observed; 🟡: Indicates that low level demethylation activity was observed (<10% conversion after 1 h); 🔴: Indicates no activity under the stated conditions (1 μM KDM, 10 μM peptide); 🟡*: *Indicates demethylation activity was only observed with 5 μM KDM; conditions: for demethylation at increased enzyme concentration (result in words): MALDI-TOF MS time course, KDM7B 5 μM, peptide 10 μM, 37 °C
Description: as §1, §4, §3

KDM4A (KDM4A1–359) = experiment: MALDI-TOF MS demethylation activity assay, KDM4A; type: biochemical, human; design: key: 🟢: Indicates that clear demethylation activity was observed; 🟡: Indicates that low level demethylation activity was observed (<10% conversion after 1 h); 🔴: Indicates no activity under the stated conditions (1 μM KDM, 10 μM peptide); 🟡*: *Indicates demethylation activity was only observed with 5 μM KDM; conditions: peptide as substrate, 1 μM KDM, 10 μM peptide, 50 mM HEPES pH 7.5, Fe(II) 10 μM, ascorbate 100 μM, 2OG 200 μM, 1 h at 37 °C
Description: as §1, §4

KDM5C (KDM5C1–765) = experiment: MALDI-TOF MS demethylation activity assay, KDM5C; type: biochemical, human; design: key: 🟢: Indicates that clear demethylation activity was observed; 🟡: Indicates that low level demethylation activity was observed (<10% conversion after 1 h); 🔴: Indicates no activity under the stated conditions (1 μM KDM, 10 μM peptide); 🟡*: *Indicates demethylation activity was only observed with 5 μM KDM; conditions: peptide as substrate, 1 μM KDM, 10 μM peptide, 50 mM HEPES pH 7.5, Fe(II) 10 μM, ascorbate 100 μM, 2OG 200 μM, 1 h at 37 °C
Description: as §1, §2

KDM4C (KDM4C1–359) = experiment: MALDI-TOF MS demethylation activity assay, KDM4C; type: biochemical, human; design: key: 🟢: Indicates that clear demethylation activity was observed; 🟡: Indicates that low level demethylation activity was observed (<10% conversion after 1 h); 🔴: Indicates no activity under the stated conditions (1 μM KDM, 10 μM peptide); 🟡*: *Indicates demethylation activity was only observed with 5 μM KDM; conditions: peptide as substrate, 1 μM KDM, 10 μM peptide, 50 mM HEPES pH 7.5, Fe(II) 10 μM, ascorbate 100 μM, 2OG 200 μM, 1 h at 37 °C
Description: as §1, §4

[1] = concentration varied, FDH/NAD+-coupled fluorescence assay, 50 mM HEPES pH 7.5, 0.01% Tween-20, 2OG 200 μM, KDM4A, mean and standard deviation of three independent replicates, SD

K M (recombinant human KDM4A; [1]) [µM]	k cat (recombinant human KDM4A; [1]) [s⁻¹]	k cat/K M (recombinant human KDM4A; FDH-coupled assay, ratio of k cat (s^−1) and K M (μM)) [M⁻¹ s⁻¹]	demethylation at increased enzyme concentration (result in words) (KDM7A (KDM7A38–480); MALDI-TOF MS time course, KDM7A 5 μM, peptide 10 μM, 37 °C)	demethylation at increased enzyme concentration (result in words) (KDM7B (PHF8; KDM7B1–447); listed as H1.4K26me2)	Substance	demethylation activity on methylated H1.4 peptide (KDM3A (KDM3A515–1317))	demethylation activity on methylated H1.4 peptide (KDM7A (KDM7A38–480); peptide as substrate, MALDI-TOF MS, 1 μM KDM, 10 μM peptide, 50 mM HEPES pH 7.5, Fe(II) 10 μM, ascorbate 100 μM, 2OG 200 μM, 1 mM TCEP, 1 h at 37 °C)	demethylation activity on methylated H1.4 peptide (KDM6B (KDM6B1141–1590))	demethylation activity on methylated H1.4 peptide (KDM2A (KDM2A1–557))	demethylation activity on methylated H1.4 peptide (KDM4D (KDM4D1–359))	demethylation activity on methylated H1.4 peptide (KDM4E (KDM4E1–337))	demethylation activity on methylated H1.4 peptide (KDM4B (KDM4B1–359))	demethylation at increased enzyme concentration (result in words) (KDM7B (PHF8; KDM7B1–447))	demethylation activity on methylated H1.4 peptide (KDM7B (PHF8; KDM7B1–447); peptide as substrate, MALDI-TOF MS, 1 μM KDM (* = only with 5 μM KDM), 10 μM peptide, 50 mM HEPES pH 7.5, Fe(II) 10 μM, ascorbate 100 μM, 2OG 200 μM, 1 h at 37 °C)	demethylation activity on methylated H1.4 peptide (KDM4A (KDM4A1–359))	demethylation activity on methylated H1.4 peptide (KDM5C (KDM5C1–765))	demethylation activity on methylated H1.4 peptide (KDM4C (KDM4C1–359))
66.8 ± 5.4	0.12 ± 0.004	1900			APATGGV-Kme3-KPHRYRP [H3(29–43)K36me3, histone H3 residues 29–43 peptide with Kme3 at K36, reference compound]												
			clear evidence for demethylation	clear evidence for demethylation	TPVKKKAR[Lys(Me2)]SAGAAK [H1.4(18–32)K26me2, peptide of residues 18–32 of histone H1.4 with N ε-dimethyllysine at K26]	🔴	🟡 (Indicates that low level demethylation activity was observed (<10% conversion after 1 h))	🔴	🔴	🟢	🟢	🟢	demethylation of H1.4(18-32)K26me2 is observed	🟡*	🟢	🔴	🟢
